Source: patent US9527836B2, “Crystal having specific crystal habit and pharmaceutical composition containing the crystal as active ingredient” (POLA PHARMA INC., priority 2013, dated 2016)

Legend:
[1] = tested on: Trichomonas vaginalis (clinically isolated strain); assay: Direct effect on Trichomonas vaginalis culture, number of individuals counted on a hemocytometer; assay type: cell-based; conditions: 5.08 mg solid crystal added to Trichomonas medium F; culture of 3.93×10^5 individuals/mL; cultured at 37° C. for 4 days
Description: The direct effect of luliconazole was investigated by using Trichomonas vaginalis (clinically isolated strain). That is, there were prepared a sample in which 5.08 mg of luliconazole of Comparative Example 1 recrystallized from n-hexane and ethyl acetate was added to “Trichomonas medium F” (produced by Fuji Pharma Co., Ltd.), a sample in which 5.08 mg of the crystal of Example 2 was added, and a sample (control) in which 5 μL of water was added. […] of a culture of Trichomonas vaginalis of 3.93×10^5 individuals/mL was added thereto, followed by being cultured at 37° C. for 4 days, and the number of individuals of Trichomonas was counted on a hemocytometer. A significant difference was confirmed at a significance level of not more than 1% among the three samples. Accordingly, it is appreciated that the crystal of the present invention is excellent in the solid-state reactivity.

[2] = Tablet hardness measurement with hardness meter PTB311; assay type: physicochemical; conditions: tablet of 50% by mass lactose and 50% by mass luliconazole, tablet making pressure 1 ton/cm^2, 9 mmφ, average of six samples
Description: A tablet was manufactured in accordance with a formulation shown in Table 5 below, and the hardness was measured. PTB311 (produced by Pharma Test GmbH) was used as a hardness meter. As for the tablet making condition, the tablet making was performed at a tablet making pressure of 1 ton/cm^2 by using a pestle and a mortar of 9 mmφ. In Comparative Example, the operation was performed in the same manner as described above by using the crystal (Comparative Example 1) obtained by performing the recrystallization with n-hexane-ethyl acetate.

[3] = Dissolution state in ethanol, visually confirmed; assay type: physicochemical; conditions: 20 mg crystal in 2 ml ethanol, stationarily placed at 30° C. for 2 hours
Description: 20 mg of each of the crystals was weighed, to which 2 ml of ethanol was added, followed by being stored by stationarily placed at 30° C. for 2 hours. The dissolution state was visually confirmed. Accordingly, it is appreciated that the crystal of the present invention is easily dissolved in the polar solvent.

[4] = listed as crystal of Comp. Ex. 1

Hardness [2, 4]	Dissolution state [3, 4]	Dissolution state ([3]; listed as crystal of Example 1)	Hardness ([2]; listed as crystal of Example 2)	Dissolution state ([3]; listed as crystal of Example 2)	Compound	number of individuals of Trichomonas (Average) [1]
29.1 ± 3.0 N	crystal was found at bottom	–	–	–	N#C/C(=C1/SC[C@@H](c2ccc(Cl)cc2Cl)S1)n1ccnc1 [Comp. Ex. 1, luliconazole, reference compound]	376000
–	–	no crystal was found	–	–	N#C/C(=C1/SC[C@@H](c2ccc(Cl)cc2Cl)S1)n1ccnc1 [Example 1, luliconazole]	–
–	–	–	73.7 ± 4.2 N	no crystal was found	N#C/C(=C1/SC[C@@H](c2ccc(Cl)cc2Cl)S1)n1ccnc1 [Example 2, luliconazole]	256000
